Experimental data published in patent US20100028366A1, “SYNERGISTIC EFFECT BETWEEN A […] AND ANOTHER OXIDATIVE INDUCING SYSTEM FOR TREATING TUMORS” (priority 2005, published 2010).

Experiments:
W&Wlis cells [1] = assay: Cell viability analysis by MTT; format: cell-based, canine
Method: The mitochondrial enzymatic activity as indicative of cell viability was determined by means of using tetrazolium salts. In this assay 10^5 cells/test tube (culture test tubes with a flat side and screw-on cap to prevent the exit of HCN; Nunc) or 10^4 cells/well of 24-well plates closed with parafilm were seeded. After 24 hours of incubation fresh culture medium supplemented with the concentrations of linamarin (between 50 and 500 μg/ml) and glucose oxidase (5 mEU/ml) necessary for each experiment was added. In the assays in which it applied, the medium was supplemented with N-acetyl cysteine (10 mM), 1,5-isoquinolinediol (300 μM) or Z-VAD-fmk (100 μM). After the time stipulated in each experiment (between 12 and 96 hours), the culture medium was removed and fresh medium with 200 μg/mL of MTT (3-[4,5-dimethylthiazo-2-yl]-2,5-diphenyl tetrazolium bromide) was added. After 1.5 hours of incubation, the medium was removed and 3 ml (for the test tubes) or 1 ml (for the 24-well plates) of dimethyl sulfoxide was added to dissolve the formazan. After 10 minutes, the absorbance of the samples at 540 nm was determined. MTT is a tetrazolium salt soluble in aqueous medium (yellow) which is transformed by the mitochondrial dehydrogenases in formazan, an insoluble compound in aqueous medium (purple).

W&Wlis cells [2] = assay: Analysis of the type of death by flow cytometry (annexin V-FITC/propidium iodide); format: cell-based, canine; set-up: Necrosis / Apoptosis: unit not given here; conditions: Without GO
Method: The annexin V-FITC and propidium iodide assay was performed in parallel by flow cytometry. The pattern of death of the system was analyzed when adding 5 mEU/ml of glucose oxidase and the combined therapy (5 mEU/ml of GO and 500 μg/ml of linamarin) at 48 hours, followed by the control of untreated cells and of the cells incubated with 500 μg/ml of linamarin at 96 hours. Furthermore, another group of cells was subjected to the same conditions except 10 mM of N-acetyl cysteine (NAC) were added. The cells treated with the combined therapy were subsequently studied at 48 hours in the absence and presence of 100 μM of Z-VAD-fmk, followed by the control of treatment of the cells with UV in the same conditions. Finally, the cells treated with the combined therapy were shown at 48 hours in the absence and presence of 300 μM of 1,5-isoquinolinediol (DIQ), observing that the pattern of death is not modified when PARP-1 is inhibited (FIG. 4).
10^5 W&Wlis cells were seeded in test tubes with a screw-on cap and flat side (Nunc). After 24 hours, different amounts of linamarin (50, 200 or 500 μg/ml) and glucose oxidase (5 mEU/ml) were added in the specified cases. In the appropriate assays, the medium was supplemented with N-acetyl cysteine (10 mM), 1,5-isoquinolinediol (300 μM) or Z-VAD-fmk (100 μM). […] They were centrifuged for 5 minutes at 1200 rpm and the cell precipitate was washed first with PBS and then with binding buffer (0.1 M Hepes/NaOH pH 7.4, 1.4 M NaCl and 25 mM CaCl2). The cells were again precipitated and resuspended in 100 μl of binding buffer supplemented with 5 μl of annexin V-FITC and 2.5 μg/ml of propidium iodide. The samples were incubated for 15 minutes in the dark. Data acquisition and analysis was carried out by means of a FACSCalibur flow cytometer (DB Biosciences) with the Cell Quest program.

W&Wlis tumors = assay: Xenotransplant model, W&Wlis tumors in immunodeficient mice; format: in vivo; conditions: intratumoral
Method: In addition, a dose range for linamarin was evaluated in immunodeficient (nude) mice weighing 20 grams, inoculated with W&W tumor cells which stably expressed linamarase (W&Wlis). When the tumor reached an approximate size of 50 mm^3, the mice were treated with a daily dose of intratumoral linamarin at different concentrations (0.5; 0.35; 0.25 or 0.10 mg lin/g of weight of the animal).
Another approach carried out for the invention was the use of adenoviruses carrying the linamarase gene (adenolis) in W&W cell tumors induced in immunodeficient mice. 10^6 cells were subcutaneously inoculated in both flanks in mice (n=18). Part of the animals (n=8) received W&Wlis cells which already expressed linamarase, while others (n=10) were inoculated with W&W cells and only when the tumor had developed was it locally infected with adenolis. The animals inoculated with W&Wlis were treated daily with 0.25 mg lin and 0.1 EU GO/g in the largest tumor at the beginning of treatment (approximately 50 mm^3) (FIGS. 7G and 7H). The animals showing W&W tumors were treated with infection cycles with 10^9 IU of adenolis, followed by a two-day treatment with 0.25 mg lin and 0.1 EU GO/g (FIGS. 7I and 7J). The progression of the tumors was evaluated every two days.
Immunodeficient (nude strain), athymic mice weighing approximately 20 grams and 2 months old were used. They were inoculated with 1-2×10^6 cells (W&W or W&Wlis) subcutaneously in both flanks of the mice by means of an injection with a volume of 50 μl in complete PBS (supplemented with calcium and magnesium ions) with 0.1% glucose. The size of the tumors (pi π/6×height×width×length) was measured with a calibrator.
A large group of mice (n=8) were inoculated with 1-2×10^6 W&Wlis cells as previously described. When the tumors reached a mean size of 30-50 mm^3, the tumors of one flank were treated daily with 0.25 mg of linamarin and 0.1 EU of glucose oxidase/g of weight of the animal. When the untreated tumors reached a size of about 2000 mm^3 the animals were sacrificed and it was considered the end of treatment. The data was analyzed statistically by Student's t test, considering a level of significance of 5%.

[3] = 50 μg lin, 96 hours, NAC (10 mM)
[4] = 200 μg lin, 96 hours, NAC (10 mM)
[5] = 500 μg lin, 96 hours, NAC (10 mM)
[6] = Table 4, 50 μg lin, 72 hours, Z-VAD-fmk (100 μM)
[7] = Table 4, 50 μg lin, 72 hours, control (no Z-VAD-fmk)
[8] = Table 4, 200 μg lin, 72 hours, Z-VAD-fmk (100 μM)
[9] = Table 4, 200 μg lin, 72 hours, control (no Z-VAD-fmk)
[10] = Table 4, 500 μg lin, 72 hours, Z-VAD-fmk (100 μM)
[11] = Table 4, 500 μg lin, 72 hours, control (no Z-VAD-fmk)

## CC(C)(C#N)O[C@@H]1O[C@H](CO)[C@@H](O)[C@H](O)[C@H]1O [lin, 2-hydroxy-isobutyronitrile-β-D-glucopyranoside]
W&Wlis cells [1]; 10 mM N-acetyl cysteine (NAC) in the medium
  effect of NAC addition on death in the cell viability assay by MTT: did not cause any effect
W&Wlis cells [1]; 96 hours, linamarin 200 to 500 μg/ml, without GO
  cell survival by MTT: drastic reduction of the survival
W&Wlis cells [1]; linamarin alone, or combined therapy at 500 μg/ml linamarin with 5 mEU/ml glucose oxidase
  time after which cell viability begins to decrease (MTT): 48 h
W&Wlis cells [2]; 50 μg lin, 48 h
  Apoptosis: 3.71
  Necrosis: 2.96
W&Wlis cells [2]; 50 μg lin, 72 h
  Apoptosis: 3.74
  Necrosis: 5.28
W&Wlis cells [2]; 50 μg lin, 96 h
  Apoptosis: 20.83
  Necrosis: 11.33
W&Wlis cells [2]; [3]
  Apoptosis: 6.44
  Necrosis: 51.89
W&Wlis cells [2]; 200 μg lin, 48 h
  Apoptosis: 3.84
  Necrosis: 5.68
W&Wlis cells [2]; 200 μg lin, 72 h
  Apoptosis: 4.62
  Necrosis: 9.34
W&Wlis cells [2]; 200 μg lin, 96 h
  Apoptosis: 14.31
  Necrosis: 45.15
W&Wlis cells [2]; [4]
  Apoptosis: 21.58
  Necrosis: 29.18
W&Wlis cells [2]; 500 μg lin, 48 h
  Apoptosis: 5.17
  Necrosis: 5.54
W&Wlis cells [2]; 500 μg lin, 72 h
  Apoptosis: 6.25
  Necrosis: 6.91
W&Wlis cells [2]; 500 μg lin, 96 h
  Apoptosis: 18.99
  Necrosis: 24.98
W&Wlis cells [2]; [5]
  Apoptosis: 18.53
  Necrosis: 19.89
W&Wlis cells [2]; [6]
  Apoptosis: 3.48
  Necrosis: 15.01
W&Wlis cells [2]; [7]
  Apoptosis: 1.36
  Necrosis: 14.72
W&Wlis cells [2]; [8]
  Apoptosis: 2.56
  Necrosis: 13.07
W&Wlis cells [2]; [9]
  Apoptosis: 3.30
  Necrosis: 30.13
W&Wlis cells [2]; [10]
  Apoptosis: 6.08
  Necrosis: 13.24
W&Wlis cells [2]; [11]
  Apoptosis: 9.02
  Necrosis: 18.04
W&Wlis tumors; 0.1 mg lin/g daily, n=4
  therapeutic effect on tumor growth: no therapeutic effect
W&Wlis tumors; 0.25 mg lin/g daily, after the tenth day of treatment, p=0.05, n=6
  therapeutic effect on tumor growth: significant reduction of the growth of the treated tumor
W&Wlis tumors; 0.35 mg lin/g daily, fifth day of treatment
  death of animals: death of three of the four animals
W&Wlis tumors; 0.5 mg lin/g daily, between the fourth and fifth day of treatment
  death of animals: all the animals
